{"source": "patent US6204220A", "about": "“Substituted 2-oxo-3-alkynoic acids and methods of use thereof” (Rutgers, The State University of New Jersey, priority 1999, dated 2001)", "key": {"[1]": {"target": "T1, PDHc (Escherichia coli, UniProt P0AFG8)", "experiment": "Steady-state kinetics of PDHc, Km / [S]0.5 for pyruvate", "type": "biochemical", "parameters": "made in house; host or cells: E. coli JRG1342 (PDHc null), Ptac plasmid pGS523", "settings": "3-lip PDHc; 0.22 mM without reagent", "method": "(§1) Activity and related measurements on PDHc. The overall enzymatic reaction of the PDH complex was assayed using a Varian DMS 300 spectrophotometer or the Cobas Bio (Roche Diagnostics, Somerville, N.J.) automated centrifugal analyzer, monitoring the pyruvate-dependent reduction of NAD^+ at 340 nm. The reaction medium contained in 1 mL (DMS 300) or 0.25 mL (Cobas-Bio) test volume: 0.1 M Tris-HCl, pH 8.0; 1 mM MgCl2; 2 mM sodium pyruvate; 2.5 mM NAD^+; 0.052-0.2 mM coenzyme A; 0.2 mM ThDP; and 2.6 mM DTT at 27° C. The reaction was initiated either by adding enzyme to a mixture of all other components, or by adding CoA.\nThe Michaelis-Menten constants (Km) for native PDHc and PDHc treated with 2-oxo-3-butynoic acid and 2-oxo-3-heptynoic acid were obtained by fitting steady-state rates at different pyruvate concentrations to the Hill equation and the logarithmic form of the Hill equation using the Delta Graph (Pro4) computer program."}, "[2]": {"target": "T1, PDHc", "experiment": "Inactivation of 1-lip and 3-lip PDH complexes by 2-oxo-3-alkynoic acids (overall NADH assay)", "type": "biochemical, E. coli", "parameters": "made in house; host or cells: E. coli JRG1342 (PDHc null) with Ptac plasmid pGS501 (1-lip) or pGS523 (3-lip)", "settings": "for protection of PDHc from inactivation by pyruvate: 5 mM pyruvate, 1 mM ThDP, 5 mM MgCl2; for protection of PDHc from inactivation by pyruvate / inactivation of PDHc in the absence of ThDP: 3-lip (heptynoic) or 1-lip (butynoic) PDHc; for kapp, slow phase of inactivation / At (residual activity): 1-lip PDHc", "text": "(§2) Bacterial strains and plasmids for PDHc. Derivatives of the PDHc null strain, E. coli JRG1342 contained Ptac expression plasmids encoding PDHc with E2 chains bearing three lipoyl domains (3-lip PDHc; pGS523, the wild type parental complex), or a single lipoyl domain in each E2 subunit (1-lip PDHc; pGS501), and variant 1-lip PDH complexes with mutations in the E1 gene leading to C259S (pGS457) and C259N (pGS596) substitutions (Machado et al., 1992; Machado, 1993).\nPurification of PDHc. Cultures for purification of 1-lip and 3-lip PDH complexes were grown at 37° C. in LB medium containing glucose (0.2%) and ampicillin (50 μg/mL). The PDH complexes were induced by adding IPTG to 60 μM as described by Russell et al. (1992). Cells were disrupted by ultrasonic treatment after preincubation with lysozyme (0.6 mg/mL final concentration) for 15 min. The PDHc was sedimented by ultracentrifugation (100,000×g for 3 h) and further purified by chromatography on a\nSephacryl S-400 HR column. Fractions containing PDHc were pooled and treated with ammonium sulfate to 70% saturation. The enzyme was dissolved in buffer A (20 mM potassium phosphate, pH 7.8, 2 mM Na2 EDTA, 1 mM PMSF, and 1 mM benzamidine.HCl) then dialyzed against the same buffer. The PDH complexes were stored in buffer A at -20° C.\nas §1\nOne unit of activity is defined as the amount of NADH produced (μmol) per min per mg protein. The activity of resolved E1 was measured after reconstitution with excess E2-E3 subcomplex using the NADH assay for PDHc activity.\nInactivation of 1-lip and 3-lip PDH complexes and resolved E1 component by 2-oxo-3-alkynoic acids. Intact 1-lip or 3-lip PDH complexes (0.050-0.1 mg) or resolved E1 component (0.05-0.09 mg) were incubated in the dark with 5 mM MgCl2, […] of 2-oxo-3-alkynoic acids in 20 mM KH2 PO4 buffer, pH 7.5 at room temperature in a total volume 0.5 mL. The initial activity (100%) was assayed prior to the addition of 2-oxo-3-alkynoic acids. Samples (50 μL) were withdrawn periodically and diluted into 1 mL of assay solution, containing all components necessary for assay of the overall activity. The activity of untreated enzyme was stable during the time of inactivation."}, "[3]": {"target": "T2, C259N variant of 1-lip PDHc (Escherichia coli, UniProt P0AFG8, C260N)", "T2 construct": "made in house; host or cells: E. coli JRG1342 (PDHc null), Ptac plasmid pGS596", "T2 sequence (P0AFG8 2-887 C260N)": "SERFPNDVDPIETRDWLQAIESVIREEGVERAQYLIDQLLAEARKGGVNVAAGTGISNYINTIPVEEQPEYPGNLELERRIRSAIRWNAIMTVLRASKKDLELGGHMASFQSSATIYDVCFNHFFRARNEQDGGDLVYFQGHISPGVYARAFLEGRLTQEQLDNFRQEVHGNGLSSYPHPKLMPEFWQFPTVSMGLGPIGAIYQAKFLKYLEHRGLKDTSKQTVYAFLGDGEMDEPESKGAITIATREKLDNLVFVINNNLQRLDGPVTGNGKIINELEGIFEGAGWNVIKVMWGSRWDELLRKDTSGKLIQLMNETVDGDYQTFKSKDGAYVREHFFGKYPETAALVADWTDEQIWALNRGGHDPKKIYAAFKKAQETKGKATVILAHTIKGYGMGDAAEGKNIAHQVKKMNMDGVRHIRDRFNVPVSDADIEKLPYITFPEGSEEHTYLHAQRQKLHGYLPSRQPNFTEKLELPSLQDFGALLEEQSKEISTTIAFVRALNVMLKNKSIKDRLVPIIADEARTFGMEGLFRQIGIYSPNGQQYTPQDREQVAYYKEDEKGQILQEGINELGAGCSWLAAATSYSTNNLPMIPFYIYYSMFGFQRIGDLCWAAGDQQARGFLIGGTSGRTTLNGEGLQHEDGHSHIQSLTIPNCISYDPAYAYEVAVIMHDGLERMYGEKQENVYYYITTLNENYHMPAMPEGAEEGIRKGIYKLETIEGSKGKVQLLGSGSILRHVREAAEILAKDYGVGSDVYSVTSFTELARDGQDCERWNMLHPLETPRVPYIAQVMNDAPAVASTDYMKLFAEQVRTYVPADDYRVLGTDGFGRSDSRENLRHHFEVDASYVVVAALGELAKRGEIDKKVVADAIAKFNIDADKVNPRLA", "experiment": "Inactivation of C259N variant of 1-lip PDHc", "type": "biochemical, E. coli", "settings": "butynoic acid at 1 mM", "method": "FIG. 6. Inactivation of 1-lip PDHc and its C259N and C259S variants by 2-oxo-3-butynoic acid. 1-lip PDHc (0.162 mg/mL) or the C259N and C259S variants of 1-lip PDHc (0.162 mg/mL) in 20 mM KH2 PO4 buffer, pH 7.5, containing 1 mM ThDP and 5 mM MgCl2 were incubated in the absence (curve 1: 1-lip PDHc and C259N variant) or in the presence of 1 mM of 2-oxo-3-butynoic acid (curve 2: the C259N variant; curve 3: 1-lip PDHc and the C259S variant) in a total volume 0.5 mL in the dark. At different times, aliquots of 50 μL were withdrawn and the overall activity was measured as described in FIG. 1A.\nas §2\nInactivation of 1-lip and 3-lip PDH complexes and resolved E1 component by 2-oxo-3-alkynoic acids. […]"}}, "note": "Where two headings read alike, the source gives them in different places.", "data": [{"smiles": "C#CC(=O)C(=O)O", "note": "[2-oxo-3-butynoic acid, 2-Oxo-3-butynoic acid]", "values": [{"measurement": "[S]0.5 for pyruvate in the presence of / after treatment with inhibitor", "setting": "[1]", "result": "0.262 ± 0.069", "unit": "mM"}, {"measurement": "Ki", "setting": "[2]", "result": 7.9, "unit": "µM"}, {"measurement": "inhibition / inactivation of PDHc (in words)", "setting": "[2]", "result": "irreversibly inactivates"}, {"measurement": "k for inactivation of PDHc", "setting": "[2]; 0.11 mM inhibitor", "result": 0.69, "unit": "min⁻¹"}, {"measurement": "protection of PDHc from inactivation by pyruvate", "setting": "[2]", "result": "partially protected"}, {"measurement": "kapp, slow phase of inactivation", "setting": "[2]; 0.1 mM inhibitor", "result": 0.062, "unit": "min⁻¹"}, {"measurement": "kapp, slow phase of inactivation", "setting": "[2]; 0.5 mM inhibitor", "result": 0.053, "unit": "min⁻¹"}, {"measurement": "kapp, slow phase of inactivation", "setting": "[2]; 1.0 mM inhibitor", "result": 0.056, "unit": "min⁻¹"}, {"measurement": "At (residual activity)", "setting": "[2]; absence of pyruvate", "result": 20, "unit": "%"}, {"measurement": "At (residual activity)", "setting": "[2]; presence of 5 mM pyruvate", "result": 60, "unit": "%"}, {"measurement": "inactivation of PDHc in the absence of ThDP", "setting": "[2]", "result": "partial inactivation"}, {"measurement": "extent of inactivation", "setting": "[2]; 3-lip PDHc", "result": 99.62, "unit": "%"}, {"measurement": "restoration of activity after dilution", "setting": "[2]; 3-lip PDHc, 20-fold dilution, 50 min incubation in overall reaction mixture", "result": "no restoration of activity"}, {"measurement": "PDHc activity at new plateau, of original activity", "setting": "[2]; after a fresh portion of inhibitor was added", "result": "6-8%"}, {"measurement": "PDHc activity at plateau", "setting": "[2]; first portion of inhibitor, residual activity", "result": "about 30%"}, {"measurement": "kinact/KI", "setting": "[2]; pH 7.5, second-order rate constant for inactivation, read-out: ki/Ki PDHc (converted)", "result": 1730, "unit": "M⁻¹ s⁻¹"}, {"measurement": "Ki", "setting": "[2]; read-out: Ki PDHc, PDHc (1-lip PDHc)", "result": 7.9, "unit": "µM"}, {"measurement": "inactivation of C259N variant", "setting": "[3]", "result": "inactivated"}]}, {"smiles": "CCCC#CC(=O)C(=O)O", "note": "[2-oxo-3-heptynoic acid, 2-Oxo-3-heptynoic acid]", "values": [{"measurement": "[S]0.5 for pyruvate in the presence of / after treatment with inhibitor", "setting": "[1]", "result": "0.234 ± 0.025", "unit": "mM"}, {"measurement": "Ki", "setting": "[2]", "result": 2850, "unit": "µM"}, {"measurement": "protection of PDHc from inactivation by pyruvate", "setting": "[2]", "result": "failed to protect"}, {"measurement": "inactivation of PDHc in the absence of ThDP", "setting": "[2]", "result": "still inactivated to the same extent, but at a slower rate"}, {"measurement": "protection from inactivation by DTT", "setting": "[2]; 3-lip PDHc, 5 mM DTT", "result": "partial protection"}, {"measurement": "kinact/KI", "setting": "[2]; pH 7.5, read-out: ki/Ki PDHc", "result": 2.83, "unit": "M⁻¹ s⁻¹"}, {"measurement": "reactivation of inactivated 3-lip PDHc by hydroxylamine", "setting": "[2]; prolonged incubation", "result": "failure to reactivate"}]}]}
